According to patent publication US9562272B2, “Screening method for therapeutic agent for chondropathy and modified chondrocyte for treatment of chondropathy” (KYOTO UNIVERSITY, priority 2011, dated 2017):

Molecular target: T1, SIK3 (Homo sapiens, UniProt Q9Y2K2)
T1 construct: expressed in transfected cells; host or cells: HEK293
Assay: GAL4-Luc/TORC2 dual-luciferase reporter screening system for SIK3 activity in HEK293 cells
Type: cell-based
Conditions: HEK293 cells transfected with pM-TORC2 and pTarget-SIK3; test substance added 24 h later, treated for 6 hours; DMSO control
Protocol: Into HEK293 cells, a reporter vector GAL4-Luc (firefly luciferase: pTAL-5XGAL4 (150 ng)), an endogenous reporter vector (Renilla luciferase: pRL-Int (−) (30 ng)), a vector with or without the expression of TORC (pM-TORC2 or pM only (50 ng)) and a vector with or without the expression of SIK3 (pTarget-SIK3 or pTarget only (50 ng)) were introduced using Lipofectamine 2000. Twenty-four hours later, a test substance was added and the cells were further treated for 6 hours. The measurement of the reporter activity was performed using Dual-Luciferase assay kit made by Promega. As the test substance, staurosporine (STS) or a SIK2 inhibitor (Compound C) was used. As a control, DMSO alone was added.
In FIG. 7, the vertical axis represents the activity of TORC2, which is the activity of pM-TORC2 that was calculated by dividing the firefly luciferase activity by the Renilla luciferase activity and is expressed as a multiple of the activity of pM. The white bars and the black bars represent the activities of TORC2 with the absence and presence of SIK3, respectively. […] As is apparent from FIG. 7, the inhibiting activity of staurosporine (STS) on SIK3 was detected.

T1 sequence (Q9Y2K2 whole entry): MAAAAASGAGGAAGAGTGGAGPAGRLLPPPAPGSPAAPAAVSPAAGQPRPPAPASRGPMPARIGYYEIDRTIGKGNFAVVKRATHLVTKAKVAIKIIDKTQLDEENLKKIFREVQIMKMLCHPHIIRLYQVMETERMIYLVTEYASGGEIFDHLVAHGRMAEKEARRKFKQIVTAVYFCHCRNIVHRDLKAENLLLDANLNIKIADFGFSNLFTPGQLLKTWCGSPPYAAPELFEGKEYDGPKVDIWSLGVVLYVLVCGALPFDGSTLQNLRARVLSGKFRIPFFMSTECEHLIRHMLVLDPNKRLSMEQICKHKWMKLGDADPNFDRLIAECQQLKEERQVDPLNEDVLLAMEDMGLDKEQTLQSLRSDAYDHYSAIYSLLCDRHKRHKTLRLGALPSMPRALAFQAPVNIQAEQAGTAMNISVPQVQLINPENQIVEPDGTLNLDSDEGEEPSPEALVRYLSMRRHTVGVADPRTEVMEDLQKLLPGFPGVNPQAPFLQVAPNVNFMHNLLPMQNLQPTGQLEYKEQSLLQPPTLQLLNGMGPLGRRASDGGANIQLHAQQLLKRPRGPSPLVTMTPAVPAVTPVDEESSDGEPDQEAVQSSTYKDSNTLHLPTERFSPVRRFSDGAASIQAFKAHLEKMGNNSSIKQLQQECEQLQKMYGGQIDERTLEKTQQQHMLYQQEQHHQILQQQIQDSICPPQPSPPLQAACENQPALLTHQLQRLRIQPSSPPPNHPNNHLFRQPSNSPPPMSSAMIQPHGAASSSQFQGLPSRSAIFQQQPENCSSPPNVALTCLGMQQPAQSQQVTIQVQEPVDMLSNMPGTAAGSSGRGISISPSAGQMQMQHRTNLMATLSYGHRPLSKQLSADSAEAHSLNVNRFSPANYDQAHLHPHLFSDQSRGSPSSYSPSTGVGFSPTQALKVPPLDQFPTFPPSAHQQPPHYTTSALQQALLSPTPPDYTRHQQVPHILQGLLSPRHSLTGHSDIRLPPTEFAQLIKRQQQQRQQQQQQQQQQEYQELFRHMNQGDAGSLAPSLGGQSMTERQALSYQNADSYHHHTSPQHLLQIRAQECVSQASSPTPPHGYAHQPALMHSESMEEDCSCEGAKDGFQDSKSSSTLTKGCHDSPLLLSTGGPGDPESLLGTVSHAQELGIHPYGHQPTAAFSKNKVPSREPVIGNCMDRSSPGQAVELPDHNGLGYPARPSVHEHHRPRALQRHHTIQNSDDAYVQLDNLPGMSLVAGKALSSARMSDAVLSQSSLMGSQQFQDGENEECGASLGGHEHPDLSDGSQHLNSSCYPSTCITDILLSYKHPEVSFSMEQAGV

With CN[C@@H]1C[C@H]2O[C@@](C)([C@@H]1OC)n1c3ccccc3c3c4c(c5c6ccccc6n2c5c31)C(=O)NC4 [staurosporine] the “inhibiting activity on SIK3 (activity of TORC2 with absence vs presence of SIK3)” value was “detected”.
